Measurements from patent publication US20230002327A1, “SMALL-MOLECULE REGULATOR OF TLR8” (TSINGHUA UNIVERSITY, priority 2019, published 2023).

Assays:
TLR8 [1] = molecular target: T1, TLR8 (Homo sapiens, UniProt Q9NR97); test: Inhibition of R848-induced signaling in HEK-Blue hTLR8 cell line (Quanti-Blue); assay type: cell-based
T1 construct: host or cells: HEK-Blue hTLR8 (HEK293-derived SEAP reporter cells)
T1 sequence (Q9NR97 27-1041): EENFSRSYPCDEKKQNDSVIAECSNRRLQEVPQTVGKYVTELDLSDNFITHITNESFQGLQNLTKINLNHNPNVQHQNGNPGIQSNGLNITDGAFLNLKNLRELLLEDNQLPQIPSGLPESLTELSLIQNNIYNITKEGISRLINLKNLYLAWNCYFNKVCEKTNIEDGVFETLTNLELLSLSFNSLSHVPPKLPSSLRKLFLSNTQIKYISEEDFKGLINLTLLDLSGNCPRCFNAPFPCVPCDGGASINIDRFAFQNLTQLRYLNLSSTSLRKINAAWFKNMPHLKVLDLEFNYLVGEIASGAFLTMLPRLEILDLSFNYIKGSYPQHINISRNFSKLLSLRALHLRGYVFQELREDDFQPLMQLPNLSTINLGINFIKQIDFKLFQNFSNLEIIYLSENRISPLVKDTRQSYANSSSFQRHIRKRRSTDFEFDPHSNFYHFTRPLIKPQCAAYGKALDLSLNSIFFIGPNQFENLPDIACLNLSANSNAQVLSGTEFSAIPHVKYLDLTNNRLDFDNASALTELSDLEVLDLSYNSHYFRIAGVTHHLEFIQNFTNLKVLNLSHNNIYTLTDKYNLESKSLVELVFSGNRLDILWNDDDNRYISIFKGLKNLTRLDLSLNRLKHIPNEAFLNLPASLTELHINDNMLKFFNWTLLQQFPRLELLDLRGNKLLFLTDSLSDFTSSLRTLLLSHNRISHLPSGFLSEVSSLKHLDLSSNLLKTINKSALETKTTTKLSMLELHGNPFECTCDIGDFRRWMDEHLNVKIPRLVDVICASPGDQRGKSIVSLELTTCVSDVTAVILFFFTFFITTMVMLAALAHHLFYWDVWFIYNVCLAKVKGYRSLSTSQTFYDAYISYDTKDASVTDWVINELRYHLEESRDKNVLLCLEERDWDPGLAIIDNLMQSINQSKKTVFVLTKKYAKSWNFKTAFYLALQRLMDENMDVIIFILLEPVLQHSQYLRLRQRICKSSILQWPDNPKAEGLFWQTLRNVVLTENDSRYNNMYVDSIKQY
How it was run: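 HEK-Blue hTLR8 cells, 45,000 per well, cultured 24 h then switched to serum-free DMEM; after a further 24 h, supernatant SEAP read with Quanti-Blue at 620 nm. Inhibition computed relative to R848 and untreated-cell OD620; IC50 from curve fit.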

HEK-Blue hTLR8 cell line = test: Toxicity test of compounds (CCK-8 cell viability); assay type: cell-based, human; design: key to WST1 (normalized toxicity effect): viability relative to control well (background-subtracted OD), 1 = control
Description: In the 96-well plate used for the above-mentioned activity test of compounds (remaining 50 μL of culture medium containing cells), 5 μL of CellCountingKit-8 (CCK-8) Supermix was added to each well. Note that the introduction of air bubbles into the wells should be avoided since the air bubbles would interfere with the detection of OD value.
The culture plate was incubated in an incubator for 1 to 4 hours,
The edge of the 96-well plate could be tapped gently before reading the plate, and then the absorbance at 450 nm was measured by using the multi-mode plate reader.
Cell viability (%) was determined using the following formula: cell viability (%)=([Compound well ([…])−Background well (OD450)]/[Control well ([…])−Background well (OD450)])×100%. Among these, the background well was only added with the medium and CCK-8 reagent, the control well was only added with the medium, cells, R848 and CCK-8, and the compound wells were added with the medium, cells, R848, compounds in different concentrations, and CCK-8.

TLR8 [2] = molecular target: T1, TLR8; test: ORN06-induced signaling in HEK-Blue hTLR8 cell line; assay type: cell-based
Description: HEK Blue hTLR8 cells or HEK Blue hTLR7 cells were cultured in DMEM medium supplemented with 10% fetal bovine serum, penicillin (100 U/mL) and streptomycin ([…]). Thereafter, cells were seeded in 96-well plate (45,000 cells per well), and were cultured for 24 hours in a humidified incubator (37° C., 5% CO2).
After 24 hours, the supernatant and suspending cells were aspirated and replaced with fresh serum-free DMEM. Cells were treated with 1 μg/mL of R848 (agonist of TLR7/8) or 5 μg/mL of ssRNA40/LyoVec or 5 μg/mL of ORN06/LyoVec (InvivoGen) and compounds with specified concentrations, and were placed in a humidified incubator (37° C., 5% CO2) for co-culture.
After 24 hours, 50 μL of the medium was aspirated from each well and then added to a new 96-well plate, followed by the addition of 50 μL of Quanti-Blue in each well and the incubation at 37° C. in darkness. Changes in color would occur in the […] within 60 minutes, and the absorbance was measured at 620 nm by using the multi-mode plate reader Vrioskan Flash. Inhibition rate (%)=[R848 (OD620)−Compound (OD620)]/[R848 (OD620)−Control (OD620)]×100%. Among these, the control group was only added with the same amount of cells. Finally, the software Prism 6.0 was utilized to plot a graph and calculate IC50 values. […]

TLR8 [3] = molecular target: T1, TLR8; test: Specificity test in HEK-Blue TLR cell lines: TLR8; assay type: cell-based
Description: The selectivity of compounds for receptors in TLR family was tested in HEK-Blue cells overexpressing various TLRX (x=1 to 9) respectively. The steps of this test method were the same as those mentioned above in “Activity Test of Compounds”, except that the ligands corresponding to different TLRs were used to activate the downstream signaling in the corresponding cells. Among these, ploy (I:C) (20 μg/mL), LPS (40 ng/mL), Pam3CSK4 (100 ng/mL), Pam2CSK4 (100 ng/mL), flagellin (200 ng/mL), R848 (1 μg/mL) and ODN2006 (0.5 μM) were used to selectively activate HEK-Blue hTLR3-, hTLR4-, hTLR1/2-, hTLR2/6-, hTLR5-, hTLR7- and hTLR9-overexpressing cells, respectively.

[4] = HEK-Blue hTLR8 cell line (FIG. 1, FIG. 10)
[5] = HEK-Blue hTLR8 cell line, at a concentration of 100 μM (FIG. 12)

inhibitory effect on R848-induced signaling (TLR8 [1]; [4]) | IC50 (TLR8 [1]; R848-induced signaling, HEK-Blue hTLR8 cell line, value ± standard deviation, at least triplicate) | inhibitory effect on ORN06-induced signaling (TLR8 [2]; HEK-Blue hTLR8 cell line (FIG. 1)) | specific inhibitory effect on HEK-Blue hTLR8 cell line (TLR8 [3]; at a concentration of 20 μM (FIG. 3)) | inhibitory effect on R848-induced signaling (TLR8 [1]; [5]) | Remaining R848-induced TLR8 signaling (normalized activity; ligand+DMSO = 1, untreated = 0) (TLR8 [1]; HEK-Blue hTLR8 cell line, normalized, ligand+DMSO = 100% activity, untreated = 0%) | synergistic activating effect on ORN06-induced signaling (TLR8 [2]; [5]) | specific inhibitory effect on TLR8 signaling pathway (TLR8 [3]; at a concentration of 100 μM (FIG. 11)) | SMILES | toxicity in HEK-Blue hTLR8 cell line (HEK-Blue hTLR8 cell line; even at a concentration of 100 μM (FIG. 2)) | influence on cell viability (HEK-Blue hTLR8 cell line; HEK-Blue hTLR8 cells, under the test conditions (FIG. 10)) | WST1 (normalized toxicity effect) (HEK-Blue hTLR8 cell line; normalized cell viability, HEK-Blue cell lines)
excellent inhibitory effect | 30 ± 2 nM | excellent inhibitory effect | specific inhibitory effect | – | – | – | – | CSc1nnc(CCCO)n1-c1cc(C)c(C)c(C)c1 [Compound 24, 3-(5-(methylthio)-4-(3,4,5-trimethylphenyl)-4H-1,2,4-triazole-3-yl)propan-1-ol] | did not cause significant toxicity | – | –
significant inhibitory effect | – | – | – | significant inhibitory effect | 0.1 ± 0.1 | synergistic activating effect | specific inhibitory effect | CCOCc1nc(I)c(-c2ccccc2)n1CC(C)(C)O [Compound 53, 1-[2-(ethoxymethyl)-4-iodo-5-phenyl-1H-imidazole-1-yl]-2-methylpropan-2-ol] | – | no influence on cell viability | 0.9 ± 0.2
